Source: patent US20230374034A1, “NOVEL BICYCLIC COMPOUNDS” (PRISM BIOLAB CO., LTD., priority 2020, published 2023)
Like-named read-outs stand apart in the source and are kept apart here.

System: NICD (Notch intracellular domain) CSL-bla reporter in HeLa cells
Assay: Notch assay (CellSensor T-REx NICD CSL-bla HeLa beta-lactamase reporter; Method 1 / Method 2)
Type: cell-based
Settings: Homo sapiens, 10 μM compound, read-out: inhibiton (%) at 10 μM
Procedure, shortened: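 HeLa cells carrying doxycycline-inducible NICD and a CSL-driven beta-lactamase reporter, 10^3 cells/well, were treated with compound plus doxycycline for 16-20 h at 37 °C. CCF4-AM substrate was loaded for 4 h at room temperature; background-subtracted blue (460 nm)/green (530 nm) emission ratio taken per well.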

[1] = Method 2 (40 nL of 1000× compound added to plate with Echo)
[2] = Method 1 (10× compound prepared in assay medium, added to plated cells)

Row | SMILES | inhibition at 10 µM [1] [%] | inhibition at 10 µM [2] [%]
1 | O=C(NCCc1ccccc1)[C@H](Cc1ccccc1)N1CC2N(C(=O)OCCc3ccc(O)cc3)O[C@H](Cc3ccc(O)cc3)C(=O)N2[C@@H](Cc2ccccc2)C1=O (stereo partly drawn) [Compound I-83, 4-hydroxyphenethyl (3R,6S)-6-benzyl-3-(4-hydroxybenzyl)-4,7-dioxo-8-((S)-1-oxo-1-(phenethylamino)-3-phenylpropan-2-yl)hexahydropyrazino [2,1-c][1,2,4]oxadiazine-1(6H)-carboxylate] | 76.2 | 
2 | COC(=O)N1O[C@H](CC2CCCCC2)C(=O)N2C1CN(CCc1cccc3ccccc13)C(=O)[C@@H]2CCCCN (stereo partly drawn) [Compound I-42, (3R,6S)-methyl 6-(4-aminobutyl)-3-(cyclohexylmethyl)-8-(2-(naphthalen-1-yl)ethyl)-4,7-dioxohexahydropyrazino[2,1-c][1,2,4]oxadiazine-1(6H)-carboxylate] | 95 | 
3 | CC(C)COC(=O)N1O[C@H](C(C)C)C(=O)N2C1CN(Cc1cccc3ccccc13)C(=O)[C@@H]2Cc1ccc(O)cc1 (stereo partly drawn) [Compound I-1, (3R,6S)-isobutyl 6-(4-hydroxybenzyl)-3-isopropyl-8-(naphthalen-1-ylmethyl)-4,7-dioxohexahydropyrazino[2,1-c][1,2,4]oxadiazine-1(6H)-carboxylate] |  | 55.9
4 | CC(C)C[C@H]1ON(CCCc2ccccc2)C2CN(C3CCN(C)CC3)C(=O)[C@H](CC3CCCCC3)N2C1=O (stereo partly drawn) [Compound I-143, (3R,6S)-6-(cyclohexylmethyl)-3-isobutyl-8-(1-methylpiperidin-4-yl)-1-(3-phenylpropyl) tetrahydropyrazino [2,1-c][1,2,4]oxadiazine-4,7(3H,6H)-dione] | 105 | 
5 | CC[C@H](C)[C@H]1C(=O)N(CCc2cccc3ccccc23)CC2N(C(=O)OCCc3ccc(O)cc3)O[C@H](Cc3ccc(O)cc3)C(=O)N21 (stereo partly drawn) [Compound I-46, (3R,6S)-4-hydroxyphenethyl 6-((S)-sec-butyl)-3-(4-hydroxybenzyl)-8-(2-(naphthalen-1-yl)ethyl)-4,7-dioxohexahydropyrazino[2,1-c][1,2,4]oxadiazine-1(6H)-carboxylate] | 75.6 | 
6 | CCCCCOC(=O)N1O[C@H](CC(C)C)C(=O)N2C1CN([C@@H](Cc1ccc(O)cc1)C(=O)NCCC(C)C)C(=O)[C@@H]2Cc1ccc(O)cc1 (stereo partly drawn) [Compound I-96, pentyl (3R,6S)-6-(4-hydroxybenzyl)-8-((S)-3-(4-hydroxyphenyl)-1-(isopentylamino)-1-oxopropan-2-yl)-3-isobutyl-4,7-dioxohexahydropyrazino[2,1-c][1,2,4]oxadiazine-1(6H)-carboxylate] | 56.3 | 
7 | CCCCCOC(=O)N1O[C@H](Cc2ccccc2)C(=O)N2C1CN([C@@H](CC(C)C)C(=O)NCCCc1ccc(O)cc1)C(=O)[C@@H]2CCC(N)=O (stereo partly drawn) [Compound I-127, pentyl (3R,6S)-6-(3-amino-3-oxopropyl)-3-benzyl-8-((S)-1-((3-(4-hydroxyphenyl)propyl)amino)-4-methyl-1-oxopentan-2-yl)-4,7-dioxohexahydropyrazino [2,1-c][1,2,4]oxadiazine-1(6H)-carboxylate] | 62.1 | 
8 | CC(C)C[C@H]1C(=O)N(CCc2ccc(O)cc2)CC2N(C(=O)OCCc3ccc(O)cc3)O[C@H](Cc3ccc(O)cc3)C(=O)N21 (stereo partly drawn) [Compound I-41, (3R,6S)-4-hydroxyphenethyl 3-(4-hydroxybenzyl)-8-(4-hydroxyphenethyl)-6-isobutyl-4,7-dioxohexahydropyrazino[2,1-c][1,2,4]oxadiazine-1(6H)-carboxylate] | 59.3 | 
9 | CC(C)CCNC(=O)[C@H](Cc1ccc(O)cc1)N1CC2N(C(=O)OCCc3ccc(O)cc3)O[C@H](Cc3ccccc3)C(=O)N2[C@@H](Cc2ccc(O)cc2)C1=O (stereo partly drawn) [Compound I-108, 4-hydroxyphenethyl (3R,6S)-3-benzyl-6-(4-hydroxybenzyl)-8-((S)-3-(4-hydroxyphenyl)-1-(isopentylamino)-1-oxopropan-2-yl)-4,7-dioxohexahydropyrazino[2,1-c][1,2,4]oxadiazine-1(6H)-carboxylate] | 72.4 | 
10 | CC(C)CCOC(=O)N1O[C@H](C)C(=O)N2C1CN([C@@H](Cc1ccccc1)C(=O)NCCCC(N)=O)C(=O)[C@@H]2Cc1ccccc1 (stereo partly drawn) [Compound I-87, isopentyl (3R,6S)-8-((S)-1-((4-amino-4-oxobutyl)amino)-1-oxo-3-phenylpropan-2-yl)-6-benzyl-3-methyl-4,7-dioxohexahydro-pyrazino[2,1-c] [1,2,4]oxadiazine-1(6H)-carboxylate] | 58.3 | 
11 | CCCCCCOC(=O)N1O[C@@H](CC(C)C)C(=O)N2C1CN(Cc1ccccc1)C(=O)[C@@H]2Cc1ccc(O)cc1 (stereo partly drawn) [Compound I-5, (3S,6S)-hexyl 8-benzyl-6-(4-hydroxybenzyl)-3-isobutyl-4,7-dioxohexahydropyrazino[2,1-c][1,2,4]oxadiazine-1(6H)-carboxylate] |  | 66.1
12 | CC(C)CCN1CC2N(C(=O)OCc3cccc4ccccc34)O[C@H](C(C)C)C(=O)N2[C@@H](Cc2ccc(O)cc2)C1=O (stereo partly drawn) [Compound I-9, (3R,6S)-naphthalen-1-ylmethyl 6-(4-hydroxybenzyl)-8-isopentyl-3-isopropyl-4,7-dioxohexahydropyrazino[2,1-c][1,2,4]oxadiazine-1(6H)-carboxylate] |  | 70
13 | CC(C)C[C@H]1ON(C(=O)OCc2ccccc2)C2CN(C3CCN(C)CC3)C(=O)[C@H](CCCCN(Cc3ccccc3)Cc3ccccc3)N2C1=O (stereo partly drawn) [Compound I-144, benzyl (3R,6S)-6-(4-(dibenzylamino)butyl)-3-isobutyl-8-(1-methylpiperidin-4-yl)-4,7-dioxohexahydropyrazino [2,1-c][1,2,4]oxadiazine-1(6H)-carboxylate] | 78.1 | 
14 | CC(C)C[C@H]1ON(CCCC2CCN(S(=O)(=O)c3ccc(C#N)cc3)CC2)C2CN(C3CCN(C)CC3)C(=O)[C@H](CC(C)C)N2C1=O (stereo partly drawn) [Compound I-152, 4-((4-(3-((3R,6S)-3,6-diisobutyl-8-(1-methylpiperidin-4-yl)-4,7-dioxohexahydro-pyrazino[2,1-c][1,2,4]oxadiazin-1(6H)-yl)propyl)piperidin-1-yl)sulfonyl)benzonitrile] | 93.5 | 
15 | CCCC[C@@H](C(=O)NCCCc1ccccc1)N1CC2N(C(=O)OCCc3ccccc3)O[C@H](CC(C)C)C(=O)N2[C@@H](CCC(N)=O)C1=O (stereo partly drawn) [Compound I-124, phenethyl (3R,6S)-6-(3-amino-3-oxopropyl)-3-isobutyl-4,7-dioxo-8-((S)-1-oxo-1-((3-phenylpropyl)amino)hexan-2-yl)hexahydropyrazino[2,1-c][1,2,4]oxadiazine-1(6H)-carboxylate] | 57.1 | 
